Laboratory results: the kinase profiling compilation of Christmann-Franck et al. (2016)

What was measured:
Assay in all cases: KINOMEscan competition binding
Details in all cases: compound 0.1 µM
PRKAA1 (human) = PRKAA1 (human) (UniProt Q13131)
YES1 (human) = YES1 (human) (UniProt P07947)
DMPK (human) = DMPK (human) (UniProt Q09013)
MATK (human) = MATK (human) (UniProt P42679)
FGR (human) = FGR (human) (UniProt P09769)
KDR (human) = KDR (human) (UniProt P35968)
MAP3K12 (human) = MAP3K12 (human) (UniProt Q12852)
MAPK1 (human) = MAPK1 (human) (UniProt P28482)
CHEK2 (human) = CHEK2 (human) (UniProt O96017)
EPHB6 (human) = EPHB6 (human) (UniProt O15197)
PRKCH (human) = PRKCH (human) (UniProt P24723)
[1] = tested on: EGFR (human), P00533 [752-759 del]
CSNK1G3 (human) = CSNK1G3 (human) (UniProt Q9Y6M4)
PTK2B (human) = PTK2B (human) (UniProt Q14289)
BLK (human) = BLK (human) (UniProt P51451)
CDC42BPB (human) = CDC42BPB (human) (UniProt Q9Y5S2)
PRKCE (human) = PRKCE (human) (UniProt Q02156)
PIP5K1A (human) = PIP5K1A (human) (UniProt Q99755)
[2] = tested on: EGFR (human), P00533 [G719C]
RPS6KA6 KD2 (human) = RPS6KA6 KD2 (human) (UniProt Q9UK32)
CDK13 (human) = CDK13 (human) (UniProt Q14004)
CSNK1G1 (human) = CSNK1G1 (human) (UniProt Q9HCP0)
SRPK3 (human) = SRPK3 (human) (UniProt Q9UPE1)
[3] = tested on: ABL1 (human), P00519 [Y253F]
TTK (human) = TTK (human) (UniProt P33981)
EPHA2 (human) = EPHA2 (human) (UniProt P29317)
PLK2 (human) = PLK2 (human) (UniProt Q9NYY3)
CDK14 (human) = CDK14 (human) (UniProt O94921)
LRRK2 (human) = LRRK2 (human) (UniProt Q5S007)
PAK4 (human) = PAK4 (human) (UniProt O96013)
MERTK (human) = MERTK (human) (UniProt Q12866)
MST1R (human) = MST1R (human) (UniProt Q04912)
[4] = tested on: FLT3 (human), P36888 [N841I]
CDK8 (human) = CDK8 (human) (UniProt P49336)
STK33 (human) = STK33 (human) (UniProt Q9BYT3)
PIK3CD (human) = PIK3CD (human) (UniProt O00329)
MAPK7 (human) = MAPK7 (human) (UniProt Q13164)
AKT2 (human) = AKT2 (human) (UniProt P31751)
BMPR1B (human) = BMPR1B (human) (UniProt O00238)
CHUK (human) = CHUK (human) (UniProt O15111)

BLK (human), sequence (P51451 whole entry, looked up): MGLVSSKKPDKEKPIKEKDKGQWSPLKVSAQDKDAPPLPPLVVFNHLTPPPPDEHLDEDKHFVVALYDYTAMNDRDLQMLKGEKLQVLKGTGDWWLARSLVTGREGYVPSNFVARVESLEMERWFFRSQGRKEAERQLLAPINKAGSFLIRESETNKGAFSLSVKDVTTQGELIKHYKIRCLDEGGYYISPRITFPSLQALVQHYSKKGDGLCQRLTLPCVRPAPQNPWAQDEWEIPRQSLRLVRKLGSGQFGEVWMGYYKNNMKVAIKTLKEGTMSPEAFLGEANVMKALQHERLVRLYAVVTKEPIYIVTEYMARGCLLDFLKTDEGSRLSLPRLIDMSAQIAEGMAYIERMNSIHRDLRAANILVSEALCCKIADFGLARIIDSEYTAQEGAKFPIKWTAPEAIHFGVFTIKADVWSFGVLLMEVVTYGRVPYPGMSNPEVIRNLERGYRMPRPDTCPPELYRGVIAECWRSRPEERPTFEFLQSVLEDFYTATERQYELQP
RPS6KA6 KD2 (human), sequence (Q9UK32 whole entry, looked up): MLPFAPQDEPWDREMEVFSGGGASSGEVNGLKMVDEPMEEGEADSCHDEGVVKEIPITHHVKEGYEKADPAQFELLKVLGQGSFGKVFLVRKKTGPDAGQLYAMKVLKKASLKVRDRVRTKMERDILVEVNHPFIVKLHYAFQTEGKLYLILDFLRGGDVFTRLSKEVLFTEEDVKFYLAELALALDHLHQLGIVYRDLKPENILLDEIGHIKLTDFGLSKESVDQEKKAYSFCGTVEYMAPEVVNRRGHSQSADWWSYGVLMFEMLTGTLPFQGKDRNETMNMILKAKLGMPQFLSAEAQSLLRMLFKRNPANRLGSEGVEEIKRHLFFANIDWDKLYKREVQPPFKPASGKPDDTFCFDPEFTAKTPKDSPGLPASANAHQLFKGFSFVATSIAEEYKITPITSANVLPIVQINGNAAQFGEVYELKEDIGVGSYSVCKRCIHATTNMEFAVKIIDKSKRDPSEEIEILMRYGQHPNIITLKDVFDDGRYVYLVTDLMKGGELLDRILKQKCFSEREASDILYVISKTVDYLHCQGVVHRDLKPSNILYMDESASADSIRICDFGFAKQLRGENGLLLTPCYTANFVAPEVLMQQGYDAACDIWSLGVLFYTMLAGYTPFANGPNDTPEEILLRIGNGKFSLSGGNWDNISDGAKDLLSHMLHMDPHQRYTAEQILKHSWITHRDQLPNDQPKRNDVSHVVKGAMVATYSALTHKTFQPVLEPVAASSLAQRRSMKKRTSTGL
CDK8 (human), sequence (P49336 whole entry, looked up): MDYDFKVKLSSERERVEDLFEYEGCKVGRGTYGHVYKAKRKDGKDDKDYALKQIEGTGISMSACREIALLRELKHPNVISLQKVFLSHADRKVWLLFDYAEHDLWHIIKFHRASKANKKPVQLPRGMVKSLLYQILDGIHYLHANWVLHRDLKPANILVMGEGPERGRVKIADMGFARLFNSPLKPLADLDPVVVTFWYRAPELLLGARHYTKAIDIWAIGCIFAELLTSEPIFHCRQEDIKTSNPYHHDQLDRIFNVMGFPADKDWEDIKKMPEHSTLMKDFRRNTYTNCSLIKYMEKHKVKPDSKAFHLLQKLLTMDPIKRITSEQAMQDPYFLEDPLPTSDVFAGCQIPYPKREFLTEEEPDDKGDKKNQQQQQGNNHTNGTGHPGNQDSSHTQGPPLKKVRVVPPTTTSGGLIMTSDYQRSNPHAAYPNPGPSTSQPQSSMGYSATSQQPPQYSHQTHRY
PLK2 (human), sequence (Q9NYY3 whole entry, looked up): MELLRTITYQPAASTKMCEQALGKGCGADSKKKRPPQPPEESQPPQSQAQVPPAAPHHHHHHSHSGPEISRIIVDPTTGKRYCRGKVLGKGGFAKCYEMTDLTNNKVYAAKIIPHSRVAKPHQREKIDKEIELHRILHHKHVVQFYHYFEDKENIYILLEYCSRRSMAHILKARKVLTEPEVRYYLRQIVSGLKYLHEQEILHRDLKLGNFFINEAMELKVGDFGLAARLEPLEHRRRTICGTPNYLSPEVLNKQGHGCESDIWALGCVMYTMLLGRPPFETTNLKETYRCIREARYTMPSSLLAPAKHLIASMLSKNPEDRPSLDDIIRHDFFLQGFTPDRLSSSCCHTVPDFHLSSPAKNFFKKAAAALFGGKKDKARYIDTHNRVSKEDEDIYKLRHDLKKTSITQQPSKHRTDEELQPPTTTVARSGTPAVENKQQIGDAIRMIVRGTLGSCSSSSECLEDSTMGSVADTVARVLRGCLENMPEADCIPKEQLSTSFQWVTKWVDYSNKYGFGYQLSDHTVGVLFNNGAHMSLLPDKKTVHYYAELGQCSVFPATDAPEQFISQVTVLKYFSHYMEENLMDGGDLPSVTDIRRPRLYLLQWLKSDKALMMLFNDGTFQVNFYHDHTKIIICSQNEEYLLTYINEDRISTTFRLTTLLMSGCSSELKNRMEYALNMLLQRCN
SRPK3 (human), sequence (Q9UPE1 whole entry, looked up): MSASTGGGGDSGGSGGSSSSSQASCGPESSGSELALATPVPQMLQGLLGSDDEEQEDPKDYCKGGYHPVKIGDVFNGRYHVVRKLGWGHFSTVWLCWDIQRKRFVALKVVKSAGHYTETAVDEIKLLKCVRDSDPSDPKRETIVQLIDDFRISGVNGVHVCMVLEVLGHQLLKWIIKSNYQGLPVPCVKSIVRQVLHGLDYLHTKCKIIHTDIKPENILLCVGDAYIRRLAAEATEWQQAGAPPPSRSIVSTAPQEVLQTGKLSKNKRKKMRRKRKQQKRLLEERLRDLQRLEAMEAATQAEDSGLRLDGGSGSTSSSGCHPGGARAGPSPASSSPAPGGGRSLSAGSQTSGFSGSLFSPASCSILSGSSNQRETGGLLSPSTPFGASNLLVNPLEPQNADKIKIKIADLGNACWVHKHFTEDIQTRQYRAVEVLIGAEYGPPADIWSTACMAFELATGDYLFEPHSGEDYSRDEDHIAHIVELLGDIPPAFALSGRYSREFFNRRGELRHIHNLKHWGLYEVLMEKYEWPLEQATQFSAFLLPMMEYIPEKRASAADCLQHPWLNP
PTK2B (human), sequence (Q14289 whole entry, looked up): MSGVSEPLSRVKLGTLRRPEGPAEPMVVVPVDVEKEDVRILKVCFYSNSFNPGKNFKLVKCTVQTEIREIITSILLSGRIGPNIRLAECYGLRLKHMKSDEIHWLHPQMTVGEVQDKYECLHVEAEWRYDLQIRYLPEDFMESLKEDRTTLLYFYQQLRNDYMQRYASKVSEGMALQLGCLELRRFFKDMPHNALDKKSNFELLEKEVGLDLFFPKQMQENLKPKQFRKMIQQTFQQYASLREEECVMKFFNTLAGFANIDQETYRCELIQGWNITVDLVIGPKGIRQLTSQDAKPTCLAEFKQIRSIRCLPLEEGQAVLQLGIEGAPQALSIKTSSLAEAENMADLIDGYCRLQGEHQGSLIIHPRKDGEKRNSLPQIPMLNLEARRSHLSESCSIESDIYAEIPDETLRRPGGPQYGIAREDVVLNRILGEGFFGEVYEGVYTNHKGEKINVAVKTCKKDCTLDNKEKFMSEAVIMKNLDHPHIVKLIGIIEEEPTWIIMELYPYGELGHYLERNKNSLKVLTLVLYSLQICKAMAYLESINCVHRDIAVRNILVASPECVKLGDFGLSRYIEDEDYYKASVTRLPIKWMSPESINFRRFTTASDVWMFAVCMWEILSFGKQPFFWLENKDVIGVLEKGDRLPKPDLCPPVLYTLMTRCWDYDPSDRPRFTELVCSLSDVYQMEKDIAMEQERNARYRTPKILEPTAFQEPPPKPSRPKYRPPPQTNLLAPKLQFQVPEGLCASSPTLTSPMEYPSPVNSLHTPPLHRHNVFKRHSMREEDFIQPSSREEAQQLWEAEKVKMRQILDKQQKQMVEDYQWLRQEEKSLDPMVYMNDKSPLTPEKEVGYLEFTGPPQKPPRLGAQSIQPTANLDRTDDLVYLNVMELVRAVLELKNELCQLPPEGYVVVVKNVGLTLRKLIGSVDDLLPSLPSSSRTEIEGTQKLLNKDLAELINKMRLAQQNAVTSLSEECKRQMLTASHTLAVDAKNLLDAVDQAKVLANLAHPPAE
FGR (human), sequence (P09769 whole entry, looked up): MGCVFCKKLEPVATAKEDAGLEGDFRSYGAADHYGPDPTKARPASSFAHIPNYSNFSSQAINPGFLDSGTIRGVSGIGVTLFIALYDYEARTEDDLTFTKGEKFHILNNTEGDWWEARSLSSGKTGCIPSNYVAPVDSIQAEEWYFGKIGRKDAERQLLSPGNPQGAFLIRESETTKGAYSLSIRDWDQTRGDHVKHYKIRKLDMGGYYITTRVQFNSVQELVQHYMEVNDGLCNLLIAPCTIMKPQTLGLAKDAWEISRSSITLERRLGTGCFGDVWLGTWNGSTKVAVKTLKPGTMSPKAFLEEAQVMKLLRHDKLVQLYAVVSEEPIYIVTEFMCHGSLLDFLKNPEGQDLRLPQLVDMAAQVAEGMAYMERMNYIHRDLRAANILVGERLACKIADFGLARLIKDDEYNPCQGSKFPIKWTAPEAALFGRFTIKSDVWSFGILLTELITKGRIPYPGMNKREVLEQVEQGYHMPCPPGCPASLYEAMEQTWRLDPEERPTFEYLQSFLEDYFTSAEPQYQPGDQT
CSNK1G1 (human), sequence (Q9HCP0 whole entry, looked up): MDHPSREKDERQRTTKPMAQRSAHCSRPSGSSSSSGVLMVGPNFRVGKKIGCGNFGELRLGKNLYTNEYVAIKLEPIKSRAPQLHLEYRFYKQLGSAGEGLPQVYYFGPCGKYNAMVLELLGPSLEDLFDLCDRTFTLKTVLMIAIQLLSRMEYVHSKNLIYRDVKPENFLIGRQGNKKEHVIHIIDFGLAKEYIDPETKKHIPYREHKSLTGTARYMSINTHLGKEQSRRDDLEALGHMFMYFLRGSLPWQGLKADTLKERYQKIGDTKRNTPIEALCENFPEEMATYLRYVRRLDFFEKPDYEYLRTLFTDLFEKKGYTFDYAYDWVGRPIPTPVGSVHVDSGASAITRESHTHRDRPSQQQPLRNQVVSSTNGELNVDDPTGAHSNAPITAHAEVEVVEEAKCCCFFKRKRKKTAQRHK

Which kinase still bound, per cent of control (PRKAA1 (human)) does the source give for `CCc1ccc(C(=O)Nc2cc(CN3CCN(C)CC3)cc(C(F)(F)F)c2)cc1C#Cc1cnc2ccnn2c1` here?
Its kinase still bound, per cent of control is 83%.

What about the kinase still bound, per cent of control (YES1 (human)) of the same molecule?
Its kinase still bound, per cent of control is 70%.

And the kinase still bound, per cent of control (DMPK (human))?
Its kinase still bound, per cent of control is 100%.

What about the kinase still bound, per cent of control (MATK (human)) of the same molecule?
The kinase still bound, per cent of control was 100%.

And the kinase still bound, per cent of control (FGR (human))?
Its kinase still bound, per cent of control is 59%.

And the kinase still bound, per cent of control (KDR (human))?
The kinase still bound, per cent of control was 100%.

What about the kinase still bound, per cent of control (MAP3K12 (human)) of the same molecule?
The kinase still bound, per cent of control was 81%.

And the kinase still bound, per cent of control (MAPK1 (human))?
The kinase still bound, per cent of control was 100%.

What about the kinase still bound, per cent of control (CHEK2 (human)) of the same molecule?
Its kinase still bound, per cent of control is 100%.

What about the kinase still bound, per cent of control (EPHB6 (human)) of the same molecule?
The kinase still bound, per cent of control was 100%.

What about the kinase still bound, per cent of control (PRKCH (human)) of the same molecule?
The kinase still bound, per cent of control was 100%.

What about the kinase still bound, per cent of control [1] of the same molecule?
The kinase still bound, per cent of control was 100%.

And the kinase still bound, per cent of control (CSNK1G3 (human))?
The kinase still bound, per cent of control was 78%.

What about the kinase still bound, per cent of control (PTK2B (human)) of the same molecule?
The kinase still bound, per cent of control was 90%.

And the kinase still bound, per cent of control (BLK (human))?
The kinase still bound, per cent of control was 100%.

What about the kinase still bound, per cent of control (CDC42BPB (human)) of the same molecule?
Its kinase still bound, per cent of control is 78%.

What about the kinase still bound, per cent of control (PRKCE (human)) of the same molecule?
Its kinase still bound, per cent of control is 94%.

And the kinase still bound, per cent of control (PIP5K1A (human))?
The kinase still bound, per cent of control was 100%.

What about the kinase still bound, per cent of control [2] of the same molecule?
The kinase still bound, per cent of control was 100%.

And the kinase still bound, per cent of control (RPS6KA6 KD2 (human))?
Its kinase still bound, per cent of control is 100%.

What about the kinase still bound, per cent of control (CDK13 (human)) of the same molecule?
The kinase still bound, per cent of control was 71%.

And the kinase still bound, per cent of control (CSNK1G1 (human))?
The kinase still bound, per cent of control was 85%.

What about the kinase still bound, per cent of control (SRPK3 (human)) of the same molecule?
The kinase still bound, per cent of control was 92%.

And the kinase still bound, per cent of control [3]?
Its kinase still bound, per cent of control is 100%.

And the kinase still bound, per cent of control (TTK (human))?
Its kinase still bound, per cent of control is 77%.

And the kinase still bound, per cent of control (EPHA2 (human))?
The kinase still bound, per cent of control was 80%.

And the kinase still bound, per cent of control (PLK2 (human))?
Its kinase still bound, per cent of control is 100%.

What about the kinase still bound, per cent of control (CDK14 (human)) of the same molecule?
The kinase still bound, per cent of control was 81%.

What about the kinase still bound, per cent of control (LRRK2 (human)) of the same molecule?
Its kinase still bound, per cent of control is 86%.

And the kinase still bound, per cent of control (PAK4 (human))?
Its kinase still bound, per cent of control is 80%.

What about the kinase still bound, per cent of control (MERTK (human)) of the same molecule?
Its kinase still bound, per cent of control is 52%.

What about the kinase still bound, per cent of control (MST1R (human)) of the same molecule?
The kinase still bound, per cent of control was 66%.

What about the kinase still bound, per cent of control [4] of the same molecule?
The kinase still bound, per cent of control was 100%.

And the kinase still bound, per cent of control (CDK8 (human))?
Its kinase still bound, per cent of control is 76%.

And the kinase still bound, per cent of control (STK33 (human))?
Its kinase still bound, per cent of control is 100%.

What about the kinase still bound, per cent of control (PIK3CD (human)) of the same molecule?
The kinase still bound, per cent of control was 74%.

What about the kinase still bound, per cent of control (MAPK7 (human)) of the same molecule?
Its kinase still bound, per cent of control is 100%.

What about the kinase still bound, per cent of control (AKT2 (human)) of the same molecule?
The kinase still bound, per cent of control was 83%.

What about the kinase still bound, per cent of control (BMPR1B (human)) of the same molecule?
Its kinase still bound, per cent of control is 100%.

And the kinase still bound, per cent of control (CHUK (human))?
The kinase still bound, per cent of control was 100%.
